Measured values: US20230364057A1, “BACTERIAL DNA GYRASE INHIBITORS AND METHODS OF USE THEREOF” (THE FLORIDA INTERNATIONAL UNIVERSITY BOARD OF TRUSTEES, priority 2022, published 2023)

What was measured:
E. coli DNA gyrase [1] = biological target: T1, E. coli DNA gyrase (Escherichia coli (strain K12), UniProt P0AES4+P0AES6); experiment: biochemical; assay type: biochemical
E. coli DNA gyrase [2] = biological target: T1, E. coli DNA gyrase; experiment: Agarose gel-based DNA gyrase inhibition assay; assay type: biochemical
Procedure: 100 ng of DNA gyrase was used to supercoil the rx pAB1 in the presence of different concentrations of a gyrase inhibitor. […] Samples were analyzed by electrophoresis in 1% w/v agarose gels followed by ethidium bromide staining and photographed under UV light.

[3] = IC50 ([…]-50 µM), bin of Table 2
[4] = IC50 (50-200 µM), bin of Table 2

| Compound | inhibition of E. coli DNA gyrase activities (E. coli DNA gyrase [2]; 50 µM of compounds) | inhibition of E. coli DNA gyrase activities (E. coli DNA gyrase [2]; 200 µM of compounds) | also measured |
| --- | --- | --- | --- |
| O=C(O)CCCN1C(=O)C(=Cc2ccc(-c3nc4ccccc4s3)o2)SC1=S (single isomer, unassigned) [Compound 41] |  |  | IC50 (E. coli DNA gyrase [1]; IC50 (≤15 µM) IC50, Table 2): 1.48 µM |
| O=C(/C=C/c1ccc(O)c(O)c1)O[C@@H]1CC(O)(C(=O)O)C[C@@H](OC(=O)/C=C/c2ccc(O)c(O)c2)C1O (stereo partly shown) [3,5-dicaffeoylquinic acid, reference compound] |  |  | inhibition of E. coli DNA gyrase activities (E. coli DNA gyrase [1]): strongly inhibit |
| CCOC(=O)c1cc(-c2ccc(N3CCOCC3)cc2)nn1-c1ccccc1C(=O)O [Compound 7] | completely inhibited | completely inhibited | IC50 (E. coli DNA gyrase [1]; [3]): 25 to 50 µM |
| COc1ccc(C2=NN(c3nc(-c4ccccc4)c(CC(=O)O)s3)C(c3ccco3)C2)cc1 (stereo not shown) [Compound 10] |  | completely inhibited | IC50 (E. coli DNA gyrase [1]; [4]): 50 to 200 µM |
| N#CC(=Cc1ccc(C(=O)O)cc1)c1nc2sc3c(c2c(=O)[nH]1)CCCC3 [Compound 12] | completely inhibited | completely inhibited | IC50 (E. coli DNA gyrase [1]; [3]): 25 to 50 µM |
| Cc1cc(C)c(-c2nc3ccccc3s2)[nH]1 [Compound 13] |  | almost completely inhibited | IC50 (E. coli DNA gyrase [1]; [4]): 50 to 200 µM |
| O=C(Nc1nc2cc3c(cc2s1)OCO3)C1CC1 [Compound 15] |  | completely inhibited | IC50 (E. coli DNA gyrase [1]; [4]): 50 to 200 µM |
| CCc1ccc(S(=O)(=O)/N=C2/C=C(Nc3cccc(C(=O)O)c3)C(=O)c3ccccc32)cc1 [Compound 17] |  | completely inhibited | IC50 (E. coli DNA gyrase [1]; [4]): 50 to 200 µM |
| Cc1n[nH]c(SC(Cc2ccc(-c3cccc(Cl)c3)o2)C(=O)O)n1 (stereo not shown) [Compound 18] | completely inhibited | completely inhibited | IC50 (E. coli DNA gyrase [1]; [3]): 25 to 50 µM |
| CCc1ccc(OCC(=O)/N=c2/[nH]nc(-c3ccco3)s2)cc1 [Compound 22] |  | completely inhibited | IC50 (E. coli DNA gyrase [1]; [4]): 50 to 200 µM |
| CC(C)(C)N1C(=O)N=C(O)/C(=C\c2ccc3c(c2)CCN3CCCCl)C1=O [Compound 23] | completely inhibited | completely inhibited | IC50 (E. coli DNA gyrase [1]; [3]): 25 to 50 µM |
| Cc1ccc(NC2=NC(=O)/C(=C/C=C/c3ccco3)S2)cc1 [Compound 24] | completely inhibited | completely inhibited | IC50 (E. coli DNA gyrase [1]; [3]): 25 to 50 µM |
| O=C(O)CCN1C(=O)/C(=C/c2ccc(-c3nc4ccccc4s3)o2)SC1=S [Compound 27] | completely inhibited | completely inhibited |  |
| COc1ccc(-c2cc(-c3ccco3)nc(O)c2C#N)cc1OC [Compound 28] |  | almost completely inhibited | IC50 (E. coli DNA gyrase [1]; [4]): 50 to 200 µM |
| Cc1cc(/C=C2\SC(=S)N=C2O)c(C)n1-c1ccccc1 [Compound 29] | completely inhibited | completely inhibited | IC50 (E. coli DNA gyrase [1]; [3]): 25 to 50 µM |
| CC(=O)NC1=NC(=O)/C(=C/c2cc(C)n(-c3cccc(C(=O)O)c3)c2C)S1 [Compound 31] |  | completely inhibited | IC50 (E. coli DNA gyrase [1]; [4]): 50 to 200 µM |
| Cc1ccc(/C=C2\SC(N3CCN(C(c4ccccc4)c4ccccc4)CC3)=NC2=O)o1 [Compound 33] |  | completely inhibited | IC50 (E. coli DNA gyrase [1]; [4]): 50 to 200 µM |
| O=C1/C(=C\c2ccc(O)cc2)SC(=S)N1/N=C/c1ccc(O)cc1 [Compound 35] | completely inhibited | completely inhibited | IC50 (E. coli DNA gyrase [1]; [3]): 25 to 50 µM |
| CN(C)c1ccc(/C=C2/C(=O)N(CCc3ccc(F)cc3)C(=O)N=C2O)cc1 [Compound 38] |  | completely inhibited | IC50 (E. coli DNA gyrase [1]; [4]): 50 to 200 µM |
| CC(C)(CS(=O)(=O)[O-])NC(=O)CC[N+](C)(C)CCO [Compound 42] | completely inhibited | completely inhibited |  |
| O=C(O)c1cc(N2N=C(C(F)(F)F)/C(=C/C=C/c3ccco3)C2=O)ccc1Cl [Compound 49] | almost completely inhibited | completely inhibited | IC50 (E. coli DNA gyrase [1]; [3]): 25 to 50 µM |
| O=C1NC(=S)S/C1=C/c1ccc(OC(=O)c2ccco2)cc1 [Compound 51] |  | almost completely inhibited | IC50 (E. coli DNA gyrase [1]; [4]): 50 to 200 µM |
| CCCn1c(/C=C/c2ccco2)nc2ccccc21 [Compound 53] | almost completely inhibited | completely inhibited | IC50 (E. coli DNA gyrase [1]; [4]): 50 to 200 µM |
| O=C(NCc1cccnc1)c1ccc(-c2cccc(Cl)c2Cl)o1 [Compound 56] |  | almost completely inhibited | IC50 (E. coli DNA gyrase [1]; [4]): 50 to 200 µM |
| CN1C(=O)/C(=C\c2ccc(-c3ccccc3)o2)SC1=S [Compound 57] |  | almost completely inhibited |  |
| Cc1cc(C)c2c(c1)C(/N=N/c1cc([N+](=O)[O-])ccc1C)C(O)=N2 (stereo not shown) [Compound 114] | completely inhibited |  |  |

| Compound | inhibition of E. coli DNA gyrase activities (E. coli DNA gyrase [2]; 50 µM of compounds) | inhibition of E. coli DNA gyrase activities (E. coli DNA gyrase [2]; 200 µM of compounds) | also measured |
| --- | --- | --- | --- |
| Cc1cccc2c1N=C(O)C2/N=N/c1ccc(S(N)(=O)=O)cc1 (stereo not shown) [Compound 116] | completely inhibited |  |  |
| Cc1cc(C)c2c(c1)C(=NNc1ccc(C)c(Cl)c1)C(O)=N2 [Compound 132] | completely inhibited |  |  |
| N#C/C(=C\c1coc2ccc(O)cc2c1=O)C(=O)/N=c1\[nH]c2ccccc2s1 [Compound 165] | completely inhibited |  |  |
| O=C(O)C(c1ccccc1)N1C(=O)/C(=C\c2ccc(-c3cccc(Cl)c3)o2)SC1=S (stereo not shown) [Compound 176] | completely inhibited |  |  |
| O=C1/C(=C\c2ccc(O)c([N+](=O)[O-])c2)SC(=S)N1Cc1ccccc1 [Compound 192] | completely inhibited |  |  |
| O=C1NC(=S)S/C1=C/c1cc(Cl)cc(Cl)c1O [Compound 207] | inhibited | completely inhibited |  |
| Brc1ccc2c(c1)-c1ccccc1C1=NCCN12 [Compound 217] |  | completely inhibited |  |
| CN(C)c1ccc(/C=c2\c3ccccc3n3c2cc(-c2ccccc2)[n+]3C)cc1 [Compound 236] | completely inhibited | completely inhibited |  |
| COc1ccc2c(c1)/c(=C\c1ccc(N(C)C)cc1)c1cc(-c3ccccc3)[n+](C)n12.O=S(=O)([O-])C(F)(F)F [Compound 237] |  | completely inhibited |  |
| CC1=NN(c2nc(N)nc(/C(C#N)=C\c3ccc([N+](=O)[O-])o3)n2)C(C)(C)C1 [Compound 238] |  | completely inhibited |  |
| CCOC(=O)c1cc2c(=Cc3ccc(N(C)C)cc3)c3ccccc3n2[n+]1C.O=S(=O)([O-])C(F)(F)F [Compound 239] |  | completely inhibited |  |
| COc1cccc2nc3c(C(=O)NCCN(C)C)cccc3cc12.Cl [Compound 240] |  | completely inhibited |  |
| CN(C)CCNC(=O)c1cccc2nc3cccc(F)c3nc12.Cl [Compound 241] |  | completely inhibited |  |
| Nc1ccc2cc3ccc(N)cc3nc2c1 [Compound 246] |  | completely inhibited |  |
| Nc1c2ccccc2nc2ccccc12 [Compound 247] |  | completely inhibited |  |
| CN1/C(=C/c2cc[n+](C)c3ccccc23)Sc2ccccc21.Cc1ccc(S(=O)(=O)[O-])cc1 [Compound 248] |  | completely inhibited |  |
| CN(C)c1ccc2cc3ccc(N(C)C)cc3nc2c1 [Compound 249] |  | completely inhibited |  |
| CCOc1ccc2nc3cc(N)ccc3c(N)c2c1 [Compound 257] |  | completely inhibited |  |
| CSC1SC2C(=O)N(C)C(C(C)C)C(=O)OCC(NC(=O)c3cnc4ccccc4n3)C(=O)NC(C)C(=O)N(C)C1C(=O)N(C)C(C(C)C)C(=O)OCC(NC(=O)c1cnc3ccccc3n1)C(=O)NC(C)C(=O)N2C (stereo not shown) [Compound 258] |  | completely inhibited |  |
| O=C(O[C@@H]1Cc2c(O)cc(O)cc2O[C@@H]1c1cc(O)c(O)c(O)c1)c1cc(O)c(O)c(O)c1 [EGCG, epigallocatechin gallate, reference compound] |  |  | inhibition of E. coli DNA gyrase activities (E. coli DNA gyrase [1]): strongly inhibit |
| CN1C[C@H](CNC(=O)OCc2ccccc2)C[C@@H]2c3cccc4c3c(cn4C)C[C@H]21 [Metergoline, metergoline, reference compound] |  |  | inhibition of E. coli DNA gyrase activities (E. coli DNA gyrase [1]): inhibits gyrase activities at 100 and 200 µM |
| O=C(OC[C@H]1O[C@@H](OC(=O)c2cc(O)c(O)c(OC(=O)c3cc(O)c(O)c(O)c3)c2)[C@H](OC(=O)c2cc(O)c(O)c(OC(=O)c3cc(O)c(O)c(O)c3)c2)[C@@H](OC(=O)c2cc(O)c(O)c(OC(=O)c3cc(O)c(O)c(O)c3)c2)[C@@H]1OC(=O)c1cc(O)c(O)c(OC(=O)c2cc(O)c(O)c(O)c2)c1)c1cc(O)c(O)c(OC(=O)c2cc(O)c(O)c(O)c2)c1 [Tannic acid, tannic acid] |  |  | IC50 (E. coli DNA gyrase [2]; gel-based, read-out: IC50 against E. coli DNA gyrase): 1 µM |
| O=c1oc2c(O)c(O)cc3c(=O)oc4c(O)c(O)cc1c4c23 [ellagic acid, reference compound] |  |  | inhibition of E. coli DNA gyrase activities (E. coli DNA gyrase [1]): strongly inhibit |
| Cc1c2cc(O)c(=O)cc-2oc2cc(O)c(O)cc12 [methyl fluorone black] |  |  | IC50 (E. coli DNA gyrase [1]; read-out: IC50 against E. coli DNA gyrase): < 10 µM |
| O=c1ccc2cc3ccoc3cc2o1 [psoralen, reference compound] |  |  | inhibition of E. coli DNA gyrase activities (E. coli DNA gyrase [1]): is not a gyrase inhibitor |
| O=C(O)c1cc(O)c2c(c1)C(=O)c1cccc(O)c1C2=O [rhein] |  |  | inhibition of E. coli DNA gyrase activities (E. coli DNA gyrase [1]): potently inhibited |
